SMILES strings stand for the structures. pIC50: −log10 of the molar value. *1 amine or outer side, *2 acyl side, *3 side chain or, on linkers, in order; H or OH if unused. Where a SMILES comes first, the peptide text is derived from it. Bridges are numbered along the chain shown (N, C = ends). Roman numbers before positions name the chains, in order. [ ]: non-standard residue; d: D form. Actinocin(9to1) = Cc1c2oc3c(C)ccc(C(=O)[*:1])c3nc-2c(C(=O)[*:2])c(N)c1=O; NMeV = CN[C@H](C(=O)O)C(C)C; Sar = CNCC(=O)O

Holding throughout (assay type): cell-based, human
For one experiment, the system named is KOPN8 cell line. Put plainly: cells. As to conditions: Homo sapiens, KOPN-8, 96 h.
The next experiment has as its system SEM cell line. Kind of experiment: cells. As to conditions: Homo sapiens, 96 h.
The test system of experiment [1] is MLL-rearranged leukemia cell lines (SEM, B1, KOPN8, MOLT-3, TIB-202). Put plainly: In-vitro cytotoxicity across the panel of leukemia cell lines.
For another experiment, the system named is MOLT-3 cell line. Kind of experiment: cells. As to conditions: Homo sapiens.
Another experiment relates to B1 cell line. Put plainly: cells. The conditions noted are these: Homo sapiens, 96 h.
For the next experiment, the system named is TIB-202 cell line. Kind of experiment: cells. The conditions noted are these: Homo sapiens, 96 h.
[2] abbreviates: Homo sapiens, all five MLL-rearranged cell lines.

Consider `Nc1nc(Cl)nc2c1ncn2[C@@H]1O[C@H](CO)[C@@H](O)[C@@H]1F` [Clofarabine], for which the pIC50 (in general, the IC50 on a negative log10 scale, so that one unit is a factor of ten) was 8.06 with KOPN8 cell line; 7.59 in the experiment with SEM cell line; above 7.00 in experiment [1] (Homo sapiens, for four of five cell lines); below 5.00 with MOLT-3 cell line (MOLT-3, 96 h); above 8.00 with B1 cell line; above 8.00 in the experiment with TIB-202 cell line.

Consider `Nc1ccn([C@@H]2O[C@H](CO)[C@@H](O)C2(F)F)c(=O)n1` [Gemcitabine], for which the pIC50 in the experiment on KOPN8 cell line was above 8.30; with SEM cell line it was above 8.00; in experiment [1] (setting [2]) it was above 6.00; in experiment [1] (Homo sapiens, leukemia cell lines tested, screen), above 7.30; in the experiment with MOLT-3 cell line (MOLT-3, 96 h) it was above 8.00; with B1 cell line it was 7.59. Moreover, the pIC50 in the experiment with TIB-202 cell line was 7.25.

With `Cc1c2oc3c(C)ccc(C(=O)N[C@@H]4C(=O)N[C@H](C(C)C)C(=O)N5CCC[C@H]5C(=O)N(C)CC(=O)N(C)[C@@H](C(C)C)C(=O)O[C@@H]4C)c3nc-2c(C(=O)N[C@@H]2C(=O)N[C@H](C(C)C)C(=O)N3CCC[C@H]3C(=O)N(C)CC(=O)N(C)[C@@H](C(C)C)C(=O)O[C@@H]2C)c(N)c1=O` [Dactinomycin] (I: T[dV]P[Sar][NMeV] / II: T[dV]P[Sar][NMeV]; ester I:1-I:C, II:1-II:C; linker I:N-II:N via Actinocin(9to1)), the pIC50 with SEM cell line was above 8.00; in experiment [1] (setting [2]) it was above 6.00; with MOLT-3 cell line (MOLT-3, 96 h) it was above 8.00; in the experiment with B1 cell line it was above 8.00; in the experiment with TIB-202 cell line, above 11.00.

On to `CO[C@@]12[C@H](COC(N)=O)C3=C(C(=O)C(C)=C(N)C3=O)N1C[C@@H]1N[C@@H]12` [Mitomycin C], for which the pIC50 with KOPN8 cell line is 7.23; in the experiment on SEM cell line, 7.30; in experiment [1] (setting [2]) it was above 6.00; in experiment [1] (all five MLL-rearranged cell lines), above 6.30; in the experiment with MOLT-3 cell line (MOLT-3, 96 h) it was 7.66; with B1 cell line it was 6.43. The same compound had a pIC50 in the experiment on TIB-202 cell line of 7.07.

For the compound `CC(=O)O[C@H]1C(=O)[C@@]2(C)[C@H]([C@H](OC(=O)c3ccccc3)[C@]3(O)C[C@H](OC(=O)[C@H](O)[C@@H](NC(=O)c4ccccc4)c4ccccc4)C(C)=C1C3(C)C)[C@]1(OC(C)=O)CO[C@@H]1C[C@@H]2O` [Paclitaxel], the pIC50 is above 8.00 in the experiment on KOPN8 cell line; above 8.00 in the experiment on SEM cell line; above 7.00 in experiment [1] (Homo sapiens, KOPN-8, in TIB-202, KOPN8, SEM, and B1 cells); 5.00 in the experiment on MOLT-3 cell line (MOLT-3); 7.09 with B1 cell line; 6.97 with TIB-202 cell line.

Regarding `O=C1c2c(O)ccc(O)c2C(=O)c2c(NCCNCCO)ccc(NCCNCCO)c21` [Mitoxantrone], the pIC50 with KOPN8 cell line is above 8.00; in the experiment on SEM cell line, above 8.00; in experiment [1] (setting [2]), above 6.00; with MOLT-3 cell line (MOLT-3, 96 h), 6.47; in the experiment on B1 cell line, above 8.00; in the experiment with TIB-202 cell line, above 8.00.

`COc1c2occc2cc2ccc(=O)oc12` [Methoxsalen]: the pIC50 with KOPN8 cell line was below 5.30; in the experiment with SEM cell line, below 5.00; in the experiment with MOLT-3 cell line (MOLT-3, 96 h), below 5.00; with B1 cell line, below 5.00; in the experiment with TIB-202 cell line, below 5.30.

Consider `C[C@]12CC[C@@H]3c4ccc(O)cc4C[C@@H](CCCCCCCCC[S+]([O-])CCCC(F)(F)C(F)(F)F)[C@H]3[C@@H]1CC[C@@H]2O` (stereo partly shown) [Fulvestrant], for which the pIC50 in the experiment with KOPN8 cell line is 5.12; with SEM cell line it was below 5.00; in the experiment with MOLT-3 cell line (MOLT-3, 96 h), below 5.00; with B1 cell line it was below 5.00; with TIB-202 cell line, below 5.00.

Regarding `Cn1nnc2c(C(N)=O)ncn2c1=O` [Temozolomide], the pIC50 is below 5.30 in the experiment on KOPN8 cell line; 5.04 in the experiment with SEM cell line; below 5.00 in the experiment on MOLT-3 cell line (MOLT-3, 96 h); below 5.00 in the experiment with B1 cell line; below 5.30 in the experiment on TIB-202 cell line.

On to `CNNCc1ccc(C(=O)NC(C)C)cc1` [Procarbazine], for which the pIC50 was below 5.30 in the experiment on KOPN8 cell line; below 5.00 with SEM cell line; below 5.00 in the experiment on MOLT-3 cell line (MOLT-3, 96 h); below 5.00 with B1 cell line; below 5.30 in the experiment with TIB-202 cell line.

In the case of `Nc1ncn([C@@H]2O[C@H](CO)[C@@H](O)[C@H]2O)c(=O)n1` [Azacitidine], the pIC50 in the experiment on KOPN8 cell line was 6.08; with SEM cell line, 5.89; in the experiment on MOLT-3 cell line (MOLT-3, 96 h), 5.21; with B1 cell line, 5.29; in the experiment on TIB-202 cell line, 5.28.

As for `O=NN(CCCl)C(=O)NC1CCCCC1` [Lomustine], the pIC50 in the experiment on KOPN8 cell line is below 5.30; in the experiment on SEM cell line, 5.03; in the experiment on MOLT-3 cell line (MOLT-3, 96 h), below 5.00; in the experiment on B1 cell line, 5.08; in the experiment with TIB-202 cell line, below 5.30.

For `Nc1nc2nc[nH]c2c(=S)[nH]1` [Thioguanine], the pIC50 is 5.35 with KOPN8 cell line; 6.03 with SEM cell line; 5.15 with MOLT-3 cell line (MOLT-3, 96 h); 5.06 in the experiment with B1 cell line; 5.28 in the experiment with TIB-202 cell line.

Take `N[C@@H](Cc1ccc(N(CCCl)CCCl)cc1)C(=O)O` [Melphalan]: the pIC50 in the experiment with KOPN8 cell line is 6.37; with SEM cell line, 5.24; in the experiment on MOLT-3 cell line (MOLT-3, 96 h), 5.99; in the experiment with B1 cell line, 5.39; with TIB-202 cell line it was 5.66.

For the compound `N#Cc1ccc(C(c2ccc(C#N)cc2)n2cncn2)cc1` [Letrozole], the negative-log IC50 (pIC50) in the experiment on KOPN8 cell line was below 5.00; in the experiment with SEM cell line, below 5.00; with MOLT-3 cell line (MOLT-3, 96 h), below 5.00; with B1 cell line it was below 5.00; with TIB-202 cell line it was below 5.00.

For the origin of these results see article PMC3176174 (OncoTargets and therapy, 2011).
